Assay results published in ChEMBL document CHEMBL1201862, “PubChem BioAssay data set” (2004).
Active and inactive are the calls of the source.

What was measured:
[1] = target: T1, Rac GTPase-activating protein 1 (Homo sapiens, UniProt Q9H0H5); experiment: blockers of MgcRacGAP-driven Rac1 GTP hydrolysis – biochemical, ADP Hunter fluorescence, primary and confirmatory, confirmation (AID 624330); format: functional
T1 sequence (Q9H0H5 whole entry): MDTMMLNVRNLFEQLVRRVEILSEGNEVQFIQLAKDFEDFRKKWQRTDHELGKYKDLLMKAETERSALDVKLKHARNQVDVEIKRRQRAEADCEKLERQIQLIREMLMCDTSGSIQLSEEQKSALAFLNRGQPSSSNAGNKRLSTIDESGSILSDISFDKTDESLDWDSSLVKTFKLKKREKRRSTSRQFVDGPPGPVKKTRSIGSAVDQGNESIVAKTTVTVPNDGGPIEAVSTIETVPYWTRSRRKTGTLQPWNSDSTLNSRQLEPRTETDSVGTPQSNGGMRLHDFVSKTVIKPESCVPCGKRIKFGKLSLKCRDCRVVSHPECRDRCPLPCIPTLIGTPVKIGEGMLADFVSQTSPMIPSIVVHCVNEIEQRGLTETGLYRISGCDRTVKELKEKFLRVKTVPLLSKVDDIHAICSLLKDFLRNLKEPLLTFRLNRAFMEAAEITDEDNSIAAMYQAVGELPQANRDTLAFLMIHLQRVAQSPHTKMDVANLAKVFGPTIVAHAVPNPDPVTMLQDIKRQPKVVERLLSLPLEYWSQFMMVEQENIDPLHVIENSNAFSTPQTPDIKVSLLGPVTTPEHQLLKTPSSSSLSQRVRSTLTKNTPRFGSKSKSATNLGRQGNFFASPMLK

[2] = target: T2, Replicative DNA helicase DnaB (Mycobacterium tuberculosis, UniProt P9WMR3); experiment: DnaB intein splicing inhibitors, dose response, biochemical, cell-free fluorescence (AID 449749); format: functional
T2 sequence (P9WMR3 whole entry): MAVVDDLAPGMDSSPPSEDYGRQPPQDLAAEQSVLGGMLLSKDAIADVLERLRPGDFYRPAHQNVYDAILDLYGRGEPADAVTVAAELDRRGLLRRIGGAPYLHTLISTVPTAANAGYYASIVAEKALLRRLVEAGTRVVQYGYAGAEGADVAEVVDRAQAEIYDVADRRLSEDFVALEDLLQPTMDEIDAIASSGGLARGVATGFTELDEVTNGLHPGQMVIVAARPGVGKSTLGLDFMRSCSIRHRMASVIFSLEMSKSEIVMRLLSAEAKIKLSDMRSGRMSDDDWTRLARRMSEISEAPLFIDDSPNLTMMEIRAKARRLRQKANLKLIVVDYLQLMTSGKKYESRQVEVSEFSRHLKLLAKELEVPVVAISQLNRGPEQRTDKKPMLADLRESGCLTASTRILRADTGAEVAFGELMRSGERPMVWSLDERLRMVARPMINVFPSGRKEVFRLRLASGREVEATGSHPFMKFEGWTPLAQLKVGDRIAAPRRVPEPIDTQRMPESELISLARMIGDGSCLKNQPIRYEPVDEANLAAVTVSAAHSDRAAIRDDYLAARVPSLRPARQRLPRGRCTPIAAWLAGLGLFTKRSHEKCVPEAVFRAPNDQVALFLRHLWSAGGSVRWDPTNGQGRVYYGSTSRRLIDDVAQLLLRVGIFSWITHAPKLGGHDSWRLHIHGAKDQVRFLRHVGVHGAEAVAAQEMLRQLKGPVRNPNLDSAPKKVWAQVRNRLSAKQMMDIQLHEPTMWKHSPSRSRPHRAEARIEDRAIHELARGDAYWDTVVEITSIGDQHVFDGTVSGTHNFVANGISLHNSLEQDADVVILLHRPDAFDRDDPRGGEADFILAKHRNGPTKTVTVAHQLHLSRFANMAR

Protein RecA = target: T3, Protein RecA (Mycobacterium tuberculosis, UniProt P9WHJ3); experiment: Fluorescence Cell-Free Homogeneous Dose Retest to Identify Inhibitors of RecA-Intein Splicing Activity. [Related pubchem assays (depositor defined):AID2097, AID2223, AID489010, AID492950]; format: functional
T3 sequence (P9WHJ3 whole entry): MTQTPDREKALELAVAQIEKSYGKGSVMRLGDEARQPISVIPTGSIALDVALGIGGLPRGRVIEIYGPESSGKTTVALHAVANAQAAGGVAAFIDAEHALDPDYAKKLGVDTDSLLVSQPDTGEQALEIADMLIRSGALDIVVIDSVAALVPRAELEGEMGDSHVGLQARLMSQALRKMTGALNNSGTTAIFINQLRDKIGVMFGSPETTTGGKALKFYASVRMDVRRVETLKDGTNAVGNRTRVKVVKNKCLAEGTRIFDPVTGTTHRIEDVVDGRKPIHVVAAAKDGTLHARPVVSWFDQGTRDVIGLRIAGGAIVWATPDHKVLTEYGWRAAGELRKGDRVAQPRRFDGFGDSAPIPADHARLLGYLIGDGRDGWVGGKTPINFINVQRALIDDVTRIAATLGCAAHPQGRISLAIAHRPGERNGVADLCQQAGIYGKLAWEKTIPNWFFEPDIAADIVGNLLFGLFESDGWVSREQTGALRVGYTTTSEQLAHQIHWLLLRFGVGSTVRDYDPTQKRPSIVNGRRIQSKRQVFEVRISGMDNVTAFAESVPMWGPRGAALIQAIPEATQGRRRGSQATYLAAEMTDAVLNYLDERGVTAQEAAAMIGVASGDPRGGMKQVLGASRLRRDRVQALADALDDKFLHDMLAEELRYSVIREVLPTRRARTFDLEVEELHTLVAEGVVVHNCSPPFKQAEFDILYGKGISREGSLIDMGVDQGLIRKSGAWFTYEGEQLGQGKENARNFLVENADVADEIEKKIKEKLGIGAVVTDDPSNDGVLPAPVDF

[3] = viability of uninfected HEp-2 cells – cell-based, HTS, cytotoxicity control for RSV inhibitor project, dose response (AID 2410); format: functional; details: human respiratory syncytial virus
Cytochrome P450 1A2 = target: T4, Cytochrome P450 1A2 (Homo sapiens, UniProt P05177);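 further: PubChem cytochrome P450 panel assay, CYP1A2 panel member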
T4 sequence (P05177 whole entry): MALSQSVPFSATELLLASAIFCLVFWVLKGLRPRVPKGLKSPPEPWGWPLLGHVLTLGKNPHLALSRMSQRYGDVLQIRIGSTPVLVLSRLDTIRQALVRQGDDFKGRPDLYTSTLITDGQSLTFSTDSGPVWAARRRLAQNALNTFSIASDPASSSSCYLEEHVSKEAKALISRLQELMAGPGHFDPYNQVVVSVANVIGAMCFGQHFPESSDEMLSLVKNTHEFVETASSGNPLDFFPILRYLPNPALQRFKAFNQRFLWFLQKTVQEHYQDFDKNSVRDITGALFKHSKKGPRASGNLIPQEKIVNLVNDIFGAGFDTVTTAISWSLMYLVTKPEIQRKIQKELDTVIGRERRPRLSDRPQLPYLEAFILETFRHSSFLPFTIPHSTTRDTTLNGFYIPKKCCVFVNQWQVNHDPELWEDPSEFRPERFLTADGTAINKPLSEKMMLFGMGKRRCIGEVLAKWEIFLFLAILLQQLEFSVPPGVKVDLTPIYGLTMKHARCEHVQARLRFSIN

Cytochrome P450 2C9 = Cytochrome P450 2C9 (Homo sapiens, UniProt P11712)
[4] = NIH-3T3 fibroblast cytotoxicity, dose response, cytotoxicity control, cell-based, fluorescence, Alamar Blue, secondary assay (AID 2327); format: functional;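 further: NIH-3T3 mouse fibroblasts cultured with fluconazole at 8 µg/mL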
P388/ADR = experiment: cells; format: functional; details: Mus musculus

Chain of Cytochrome P450 2C9 (P11712 whole entry): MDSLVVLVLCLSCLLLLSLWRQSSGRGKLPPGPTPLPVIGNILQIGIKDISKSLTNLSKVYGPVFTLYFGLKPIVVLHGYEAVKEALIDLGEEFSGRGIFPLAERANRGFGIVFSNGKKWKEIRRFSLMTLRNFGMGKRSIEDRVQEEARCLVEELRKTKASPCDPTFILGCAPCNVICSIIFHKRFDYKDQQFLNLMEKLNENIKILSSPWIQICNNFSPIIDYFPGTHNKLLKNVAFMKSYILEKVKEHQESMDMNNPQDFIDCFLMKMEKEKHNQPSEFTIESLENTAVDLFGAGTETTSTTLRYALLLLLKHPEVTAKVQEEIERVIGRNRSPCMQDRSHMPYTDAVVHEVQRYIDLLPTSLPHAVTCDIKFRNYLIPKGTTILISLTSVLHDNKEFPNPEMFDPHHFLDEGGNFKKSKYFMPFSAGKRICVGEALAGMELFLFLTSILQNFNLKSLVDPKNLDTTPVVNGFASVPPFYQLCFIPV

CCN(Cc1ccccc1)C1CCN(Cc2ccc(SC)cc2)CC1
IC50 [1]: 100 µM (active)

O=C(NC(=C(Cl)Cl)S(=O)(=O)c1ccc(Cl)cc1)c1ccccc1
AC50 [2]: > 380 µM (inactive)
EC50 (Protein RecA): 1.53 µM (active)

CC(C)C(=O)N1CCN(c2c(Cl)cccc2[N+](=O)[O-])CC1
CC50 [3]: 16.3 µM (active)

COC(=O)c1ccccc1OCC(=O)N1CCN(c2ccc(Cl)cc2)CC1
AC50 (Cytochrome P450 1A2): 14.1 µM (inconclusive)
AC50 (Cytochrome P450 2C9): 14.1 µM (inconclusive)

O=C(CNCc1ccc(Cl)cc1)Nc1ccc2c(c1)OCCO2
IC50 [1]: 156 µM (active)

CN(C)/C=N/c1nc(-c2ccc3ccccc3c2)cs1
CC50 [3]: 22.8 µM (active)

CC1(C)SC(=S)N(NC(=O)Nc2ccccc2)C1N(O)C(=O)Nc1ccccc1 (stereo not drawn)
AC50 (Cytochrome P450 1A2): 28.2 µM (inconclusive)

CCn1c(SCc2ccc(Cl)cc2Cl)nc2nc3c(cc2c1=O)CCCC3
AC50 (Cytochrome P450 2C9): 5.01 µM (inconclusive)

CC1=NNC(=O)C1Cc1ccccc1 (stereo not drawn)
AC50 [2]: 0.651 µM (active)
EC50 (Protein RecA): 0.294 µM (active)

CN(C)CCn1c(C(=O)O)cc2ccccc21
AC50 (Cytochrome P450 1A2): 0.0158 µM (inconclusive)

Cc1oc(-c2ccccc2Cl)nc1CSCC(=O)NC1CC1
AC50 (Cytochrome P450 2C9): 20 µM (inconclusive)

O=C(N/N=C/c1ccc(O)cc1)NC12CC3CC(CC(C3)C1)C2
IC50 [1]: 55.9 µM (active)

Cc1onc(-c2c(Cl)cccc2Cl)c1C(=O)N1C(C)CCCC1C (stereo not drawn)
AC50 [2]: 118 µM (active)
EC50 (Protein RecA): > 380 µM (inactive)

COCCn1c(=O)cnc2cnc(Nc3cccc(OC)c3)nc21
AC50 (Cytochrome P450 2C9): 25.1 µM (inconclusive)

CN1C(=O)C(Cc2ccc3c(c2)OCO3)C(=O)N(C)C1=O
AC50 [2]: 35.3 µM (active)
EC50 (Protein RecA): 10 µM (active)

CN(C)c1ncc2nc(-c3ccccc3)c(=O)n(Cc3ccc(F)cc3)c2n1
AC50 (Cytochrome P450 1A2): 12.6 µM (inconclusive)

CC(NCc1ccc(S(N)(=O)=O)cc1)C(=O)N1c2ccccc2CC1C (stereo not drawn)
IC50 [1]: 135 µM (active)

NS(=O)(=O)c1cccc(NC(=O)COC(=O)c2cc(-c3ccc(Cl)cc3)nc3ccccc23)c1
CC50 [3]: 18.5 µM (active)

COc1ccccc1Nc1ncc(-c2cccs2)s1
CC50 [3]: 43 µM (active)

CCC(C)Oc1ccc(/C=C/c2nc(O)nc(O)c2[N+](=O)[O-])cc1OC (stereo not drawn)
CC50 [3]: 12.9 µM (active)

COC(=O)c1ccc2c(=O)n(CCO)c(=S)[nH]c2c1
CC50 [3]: 25.2 µM (active)

Cc1ccc(N2C(S)=C(C#N)C(=O)NC2c2cccs2)cc1 (stereo not drawn)
IC50 [1]: 128 µM (active)

CCOC(=O)/C(C#N)=C1\C(=O)N(Cc2ccccc2)c2ccccc21
IC50 [1]: 42.4 µM (active)

CC1(C)OC(C)(C)C(/C=N/c2ccc(O)cc2)=C1O
IC50 [1]: 17 µM (active)

COc1ccc(C)cc1Nc1nc(N)c2ccccc2n1
CC50 [3]: > 50 µM (active)

CCOc1cc(C(c2c(C)n[nH]c2O)c2c(C)n[nH]c2O)ccc1OS(=O)(=O)c1ccc(C)cc1
AC50 [2]: 0.413 µM (active)
EC50 (Protein RecA): 0.152 µM (active)

Oc1ccc(-c2nccs2)cc1
IC50 [1]: 28.1 µM (active)

COc1ccc(-c2cc(OC)c3ccccc3n2)cc1
CC50 [3]: > 50 µM (active)

CNC(=S)N1CCN(c2ccccc2OC)CC1
AC50 (Cytochrome P450 2C9): 14.1 µM (inconclusive)

COc1ccc(CN2CN(c3ccc(Cl)cc3)C(=O)N(n3cnnc3)C2)cc1
AC50 (Cytochrome P450 1A2): 15.8 µM (inconclusive)
AC50 (Cytochrome P450 2C9): 39.8 µM (inconclusive)

COc1ccc(S(=O)(=O)NC2(C(F)(F)F)N=C3SCCN3C2=O)cc1 (stereo not drawn)
AC50 (Cytochrome P450 1A2): 31.6 µM (inconclusive)
AC50 (Cytochrome P450 2C9): 28.2 µM (inconclusive)

CCOC(=O)[C@H](N)/C=C(\C)CP(=O)(O)O
AC50 (Cytochrome P450 2C9): 25.1 µM (inconclusive)

Cc1ccc(OCC(=O)NC2=NCCS2)cc1
AC50 (Cytochrome P450 2C9): 10 µM (inconclusive)

CNc1cc([N+](=O)[O-])ccc1OCc1ccccc1
CC50 [3]: 18.7 µM (active)

C=CCc1cccc(/C=N/c2cnc(O)nc2O)c1O
AC50 [2]: > 380 µM (inactive)
EC50 (Protein RecA): > 380 µM (inconclusive)

COC(=O)c1ccccc1OC(=O)c1ccc(Br)o1
AC50 [2]: 12.8 µM (active)
EC50 (Protein RecA): 15.2 µM (active)

CCNC(=O)c1ccccc1-c1nc(-c2ccccc2)no1
AC50 [2]: > 380 µM (inactive)
EC50 (Protein RecA): > 380 µM (inactive)

O=c1c2ccccc2nc(-c2ccc([N+](=O)[O-])cc2)n1O
EC50 [4]: > 150 µM (inactive)

COC(=O)[C@@]1(Cc2ccccc2)[C@H]2c3cc(C(=O)N4CCCC4)n(C)c3C[C@H]2CN1C(=O)c1ccccc1
AC50 (Cytochrome P450 1A2): 25.1 µM (inconclusive)

COc1ccc(/C=N/N=C(\N)c2nonc2N)cc1OC
CC50 [3]: 30.9 µM (active)

Cc1ccccc1OC[C@H](O)CO
AC50 (Cytochrome P450 1A2): 15.8 µM (inconclusive)

Oc1ncnc2scc(-c3ccc(Br)cc3)c12
CC50 [3]: > 50 µM (active)

c1ccc(SC(Sc2ccccc2)c2ccc3c(c2)OCO3)cc1
AC50 (Cytochrome P450 1A2): 0.501 µM (inconclusive)

COc1cc(N)c(Cc2nccc3cc(OC)c(OC)cc23)cc1OC
AC50 [2]: > 380 µM (inactive)
EC50 (Protein RecA): 31.7 µM (active)

COC(=O)Cc1c(C)nc2nc(NCc3ccccc3OC)nn2c1O
AC50 (Cytochrome P450 2C9): 22.4 µM (inconclusive)

C/C=C(\C)C(=O)OC1C2C(C)=CC(=O)C(O)C2(C)C2C3(O)OCC24C1OC(=O)C(OC(C)=O)C4C(C)C3O (stereo not drawn)
GI50 (P388/ADR): 0.319 µM (active)
